Measurements published in patent US11491120B2, “Pharmacological prophylactics against stress-induced affective disorders in females” (The Trustees of Columbia University in the City of New York, priority 2017, dated 2022).
“Also recorded” adds a separate entry of the source.

Tests used:
[1] = test system: humans; details: sub-anesthetic doses, cited from earlier work
[2] = test system: female 129S6/SvEv mice; test: Forced swim test (FST), immobility time, after stress; details: for p, Sal vs. drug, Fisher's PLSD: Immobility Time (min 1-6), Forced Swim Test Day 2 / p, Sal vs. drug, Fisher's PLSD: Immobility Time Average (min 3-6), Forced Swim Test Day 2: 3 day prophylactic drug
[3] = 2.5 mg/kg, 1 week prophylactic drug
[4] = 10 mg/kg, 1 week prophylactic drug
[5] = 10 mg/kg, 1 week prophylactic drug, learned helplessness stress
[6] = 30 mg/kg, 1 week prophylactic drug
[7] = Forced Swim Test Day 1, Dunnett test Sal vs. drug (2.5), 1 week prophylactic drug
[8] = Forced Swim Test Day 1, Dunnett test Sal vs. drug (10), 1 week prophylactic drug
[9] = Forced Swim Test Day 1, Dunnett test Sal vs. drug (30), 1 week prophylactic drug
[10] = Ovariectomized cohort, 1 week prophylactic drug, Forced Swim Test Day 1, OVX mice, K (10), (2R,6R)-HNK (0.025)

## CNC1(c2ccccc2Cl)CCCCC1=O (racemic) [(R,S)-ketamine, (RS)-2-(2-chlorophenyl)-2-(methylamino)cyclohexanone]
[1]; humans
  Antidepressant onset: 2 h
[1]
  Duration of antidepressant effect: up to 2 weeks
[2]; [3]
  p, Sal vs. drug, Dunnett test: Immobility Time (min 1), Forced Swim Test Day 2: 0.5849
  p, Sal vs. drug, Dunnett test: Immobility Time (min 1-6), Forced Swim Test Day 2: 0.8314
  p, Sal vs. drug, Dunnett test: Immobility Time (min 2), Forced Swim Test Day 2: 0.9770
  p, Sal vs. drug, Dunnett test: Immobility Time (min 4), Forced Swim Test Day 2: 0.9997
  p, Sal vs. drug, Dunnett test: Immobility Time (min 5), Forced Swim Test Day 2: 0.9999
  p, Sal vs. drug, Dunnett test: Immobility Time (min 6), Forced Swim Test Day 2: 0.9686
  p, Sal vs. drug, Dunnett test: Immobility Time Average (min 3-6), Forced Swim Test Day 2: 0.9990
[2]; 2.5 mg/kg
  p, Sal vs. drug, Fisher's PLSD: Immobility Time (min 1-6), Forced Swim Test Day 2: 0.1441
  p, Sal vs. drug, Fisher's PLSD: Immobility Time Average (min 3-6), Forced Swim Test Day 2: 0.3992
[2]; [4]
  * (significance), Sal vs. drug, Dunnett test: Immobility Time (min 1-6), Forced Swim Test Day 2: ** (** p<0.01)
  * (significance), Sal vs. drug, Dunnett test: Immobility Time (min 4), Forced Swim Test Day 2: * (* p<0.05)
  * (significance), Sal vs. drug, Dunnett test: Immobility Time (min 5), Forced Swim Test Day 2: * (* p<0.05)
  * (significance), Sal vs. drug, Dunnett test: Immobility Time Average (min 3-6), Forced Swim Test Day 2: ** (** p<0.01)
  p, Sal vs. drug, Dunnett test: Immobility Time (min 1), Forced Swim Test Day 2: 0.0825
  p, Sal vs. drug, Dunnett test: Immobility Time (min 1-6), Forced Swim Test Day 2: 0.0006
  p, Sal vs. drug, Dunnett test: Immobility Time (min 2), Forced Swim Test Day 2: 0.0675
  p, Sal vs. drug, Dunnett test: Immobility Time (min 4), Forced Swim Test Day 2: 0.0144
  p, Sal vs. drug, Dunnett test: Immobility Time (min 5), Forced Swim Test Day 2: 0.0149
  p, Sal vs. drug, Dunnett test: Immobility Time (min 6), Forced Swim Test Day 2: 0.3306
  p, Sal vs. drug, Dunnett test: Immobility Time Average (min 3-6), Forced Swim Test Day 2: 0.0062
[2]; [5]
  * (significance), Sal vs. drug, Fisher's PLSD: Immobility Time Average (min 3-6), Forced Swim Test Day 2: *** (*** p<0.0001)
  P, Sal vs. drug, Fisher's PLSD: Immobility Time Average (min 3-6), Forced Swim Test Day 2: <0.0001
[2]; 10 mg/kg
  p, Sal vs. drug, Fisher's PLSD: Immobility Time (min 1-6), Forced Swim Test Day 2: 0.1807
  p, Sal vs. drug, Fisher's PLSD: Immobility Time Average (min 3-6), Forced Swim Test Day 2: 0.4394
[2]; 10 mg/kg, injection one hour prior to FST Day 1, female mice
  Immobility on FST Day 2, first minute, vs saline: significantly less immobile compared to saline mice; also recorded: significantly less immobile than saline mice during the first minute
[2]; [6]
  p, Sal vs. drug, Dunnett test: Immobility Time (min 1), Forced Swim Test Day 2: 0.9167
  p, Sal vs. drug, Dunnett test: Immobility Time (min 1-6), Forced Swim Test Day 2: 0.1741
  p, Sal vs. drug, Dunnett test: Immobility Time (min 2), Forced Swim Test Day 2: 0.7390
  p, Sal vs. drug, Dunnett test: Immobility Time (min 4), Forced Swim Test Day 2: 0.4082
  p, Sal vs. drug, Dunnett test: Immobility Time (min 5), Forced Swim Test Day 2: 0.3770
  p, Sal vs. drug, Dunnett test: Immobility Time (min 6), Forced Swim Test Day 2: 0.8643
  p, Sal vs. drug, Dunnett test: Immobility Time Average (min 3-6), Forced Swim Test Day 2: 0.5537
[2]; 30 mg/kg
  p, Sal vs. drug, Fisher's PLSD: Immobility Time (min 1-6), Forced Swim Test Day 2: 0.0750
  p, Sal vs. drug, Fisher's PLSD: Immobility Time Average (min 3-6), Forced Swim Test Day 2: 0.3050
[2]; [7]
  p, Immobility Time (min 1): 0.9806
  p, Immobility Time (min 1-6): 0.1415
  p, Immobility Time (min 3): 0.9989
  p, Immobility Time (min 4): 0.9991
  p, Immobility Time (min 5): 0.9999
  p, Immobility Time (min 6): 0.9999
  p, Immobility Time Average (min 3-6): 0.9994
[2]; [8]
  * (significance), Immobility Time (min 3): * (* p<0.05)
  p, Immobility Time (min 1): 0.9957
  p, Immobility Time (min 1-6): 0.2256
  p, Immobility Time (min 3): 0.0470
  p, Immobility Time (min 4): 0.3636
  p, Immobility Time (min 5): 0.2596
  p, Immobility Time (min 6): 0.1488
  p, Immobility Time Average (min 3-6): 0.0733
[2]; [9]
  p, Immobility Time (min 1): 0.9955
  p, Immobility Time (min 1-6): 0.3435
  p, Immobility Time (min 3): 0.1617
  p, Immobility Time (min 4): 0.9555
  p, Immobility Time (min 5): 0.8239
  p, Immobility Time (min 6): 0.8254
  p, Immobility Time Average (min 3-6): 0.5081
[2]; [10]
  p, Immobility Time (min 1-6), OVX Sal vs OVX drug: 0.0920
  p, Immobility Time Average (min 3-6), Fisher's PLSD, OVX Sal vs OVX drug: 0.0570
